Test results from patent US20260152533A1, “COMBINATION INHIBITORS FOR TREATING FIBROSIS” (Memorial Sloan-Kettering Cancer Center, priority 2021, published 2026).

Columns and labels:
[1] = system: pancreatic stellate cells (PSCs); experiment: Western blot of PSCs; type: cell-based, mouse; conditions: PSCs, TGFβ
Source text: PSCs were isolated from C57BL/6 mice by differential centrifugation as previously described^49 and their mesenchymal origin was validated by analyzing the expression of various mesenchymal and epithelial markers. MFBs were isolated from FVB/N mice by differential centrifugation as previously described^50. DB7 mouse breast cancer cells were obtained from Alexander Borowsky (University of California Davis Comprehensive Cancer Center, Sacramento, CA, USA) through an MTA to Ohio State University (OSU). KPC (Kras^LSL-G12D; Trp53^LSL-R172H; Pdx1-Cre) mouse PDAC cells were a gift from Scott Lowe (Memorial Sloan Kettering Cancer Center. (MSKCC)). All cells were cultured at 37° C. in 5% carbon dioxide (CO2) and 20% oxygen (O2) and were maintained in Dulbecco's Modified Eagles medium (DMEM) (25 mM D-glucose, 2 mM L-glutamine) supplemented with 10% fetal bovine serum (FBS) (Gemini), 100 units/ml penicillin and 100 μg/ml streptomycin. Primary PSC and MFB cells were kept in culture for no more than ten passages. Experiments with iCAFs and myCAFs were performed as previously described^29. In brief, qPSCs were generated by culturing PSCs in a dome of GFR Matrigel (Corning) in DMEM; iCAFs were generated by culturing PSCs in a dome of GFR Matrigel in DMEM conditioned by KPC cells for 48 h; myCAFs were generated by monolayer culture of PSCs. Differentiation was validated by analyzing the expression of iCAF/myCAF markers^29. […]
Lysates were generated by incubating cells or ground tumors in RIPA buffer (Millipore); […] of cleared lysate were analyzed by SDS-polyacrylamide gel electrophoresis (SDS-PAGE) as previously described^11. […] Quantification of band intensities of collagen I relative to […] or vinculin in tumor allograft experiments was performed with Image Lab software v6.0 (Bio-Rad).

[2] = system: pyruvate carboxylase (PC); experiment: [3,4-13C]-Glc tracing in PSCs (PC activity); type: cell-based, mouse; conditions: low Gln (20%), TGFβ 48 hours (FIGS. 10J and 10K)
Method: Cells were plated in six-well cell culture plates at a concentration aimed to reach 0.5-1×10^6 cells at the time of harvest. For quantification of relative metabolite abundance, cells were cultured with glutamine-free DMEM containing different concentrations of L-glutamine and supplemented with 10% dialyzed FBS and in some experiments were treated with TGFβ for 48 hours. For the [U-^13C]and [3,4-^13C]glucose tracing experiments, cells were cultured as above, and in the last 8 hours media was replaced with DMEM without D-glucose and L-glutamine supplemented with 2 mM or 0.2 mM L-glutamine and 10 mM [U-^13C]or [3,4-^13C]D-glucose (Cambridge Isotope Laboratories) and 10% dialyzed FBS. […] For relative quantification of metabolites by gas chromatography-mass spectroscopy (GC-MS), cells were washed briefly with PBS, which was then fully aspirated and metabolism was quenched by immediately adding 1 mL of 80:20 methanol:water stored at −80° C. containing 20 μM deuterated 2-hydroxyglutarate (d5-2HG) as an internal standard. […]
GC-MS measurements were performed as described before^11. Ions used for quantification of metabolite levels were as follows: d5-2HG m/z 354; citrate m/z 465; alpha-ketoglutarate m/z 304; succinate m/z 247; fumarate m/z 245; malate m/z 335; aspartate m/z 232; hydroxyproline m/z 332; proline m/z 216; glutamate m/z 246; glutamine m/z 245; lactate m/z 219; pyruvate m/z 174. […]

PC activity [2]: suppressed
Substance: TGFβ: transforming growth-factor beta; TGFβ-1 purchased from Peprotech
collagen I production ([1]; 20% Gln, 48 hours): unable to proliferate and produce collagen I
GCN2 phosphorylation ([1]; low Gln (20%), 48 hours (FIG. 8J)): showed GCN2 phosphorylation
